Experiment [1] has as its target T1, PDE type III (Canis lupus familiaris, UniProt A0A8I3NYE0).
T1 construct: PDE was purified from the aorta in a dog; from tissue; host or cells: dog aorta
T1 sequence (A0A8I3NYE0 1-1135): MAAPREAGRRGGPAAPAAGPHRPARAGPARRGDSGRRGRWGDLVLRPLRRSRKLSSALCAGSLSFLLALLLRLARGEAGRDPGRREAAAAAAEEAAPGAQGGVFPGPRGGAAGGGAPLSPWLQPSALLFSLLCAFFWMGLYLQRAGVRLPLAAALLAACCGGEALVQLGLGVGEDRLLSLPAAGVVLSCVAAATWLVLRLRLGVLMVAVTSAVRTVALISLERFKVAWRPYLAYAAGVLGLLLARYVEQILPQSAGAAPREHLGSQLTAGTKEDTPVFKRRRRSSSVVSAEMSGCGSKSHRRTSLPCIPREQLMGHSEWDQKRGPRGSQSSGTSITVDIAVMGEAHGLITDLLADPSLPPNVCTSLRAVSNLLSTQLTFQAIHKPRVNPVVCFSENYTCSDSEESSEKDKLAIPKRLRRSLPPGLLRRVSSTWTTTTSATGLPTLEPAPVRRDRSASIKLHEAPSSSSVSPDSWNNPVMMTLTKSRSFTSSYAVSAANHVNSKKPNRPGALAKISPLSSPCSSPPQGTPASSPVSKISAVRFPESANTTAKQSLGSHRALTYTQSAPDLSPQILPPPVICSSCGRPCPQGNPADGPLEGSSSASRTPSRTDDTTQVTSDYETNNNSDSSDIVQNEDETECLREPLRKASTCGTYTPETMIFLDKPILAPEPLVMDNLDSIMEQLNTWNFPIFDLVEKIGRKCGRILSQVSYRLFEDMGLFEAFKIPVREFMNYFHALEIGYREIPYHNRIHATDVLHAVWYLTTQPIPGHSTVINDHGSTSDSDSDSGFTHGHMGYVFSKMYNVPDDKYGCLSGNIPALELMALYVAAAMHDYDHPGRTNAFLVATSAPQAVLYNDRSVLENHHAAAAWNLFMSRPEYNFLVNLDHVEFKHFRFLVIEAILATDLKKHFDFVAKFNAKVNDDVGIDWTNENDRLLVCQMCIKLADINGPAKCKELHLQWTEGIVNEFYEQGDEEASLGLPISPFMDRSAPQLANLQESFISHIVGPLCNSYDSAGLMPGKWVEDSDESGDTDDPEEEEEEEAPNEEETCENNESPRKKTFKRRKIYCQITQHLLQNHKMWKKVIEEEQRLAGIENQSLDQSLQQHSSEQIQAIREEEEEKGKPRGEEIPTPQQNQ
Description: PDE Inhibiting Activity, type III. The following applies: PDE type III from canine aorta, 1 μM substrate, pH 7.5; read-out: Inhibition Activity IC50, Type III. The experiment is classed as biochemical, dog (canine aorta). As to the method: (§1) On the basis of the method of Lugnier et al. (Biochem. Pharmacol., 35, 1743-1751, 1986), PDE was purified from the aorta in a dog. The canine aorta was minced and homogenized with a Waring Blender and a glass homogenizer in six volumes of a Tris-HCl buffer solution (pH 7.5, 20 mM) containing 2 mM magnesium acetate, 5 mM ethylenediaminetetraacetic acid (EDTA), 100 μg/mL of phenylmethylsulforyl fluoride and 15 mM 2-mercaptoethanol (2-ME), and centrifuged at 1200 xg for 30 min. The supernatant was separated and salted out with ammonium sulfate which was added to 45% saturation. The resulting precipitated fraction was resuspended in a Tris-HCl buffer solution (pH 7.5, 20 mM) containing 2 mM magnesium acetate and 1 mM 2-ME, dialyzed overnight and applied to a DEAE-trisacryl column (DEAE […] M:IBF). By elution with a sodium chloride gradient (0-0.4 M), PDE types V and III were separated from the other isozymes. The supernatant fraction of 45% saturated ammonium sulfate was further mixed with ammonium sulfate to 65% saturation and salted out. The resulting precipitated fraction was similarly applied to the DEAE-trisacryl column and eluted by a sodium chloride gradient (0-0.4 M) so as to separate PDE type I.
(§2) The thus obtained PDE types V, III and I were measured for their activity in accordance with the method of Thompson et al. (Adv. Cyclic Nucleotide Res., 10, 69-72, 1979) and the method of Wells et al. (Biochim. Biophys. Acta, 384, 430-443, 1975). Specifically, a purified PDE sample was added to 50 mM Tris-HCl buffer solution (pH 7.5) containing 1 μM of substrate cGMP or cAMP (containing tritium-labelled cGMP or cAMP), 1 mM EGTA and 2 mM magnesium acetate. For PDE activity measurement, enzymatically produced 5' GMP or 5' AMP was further hydrolyzed into guanosine or adenosine with snake venom and separated from the substrate by means of an ion-exchange resin (Dowex 1-X2), followed by measuring with a scintillation counter. The activity of each test compound was determined as a percentage of the DPE activity measured when it was added as a dimethyl sulfoxide solution (DMSO) and its IC50 (50% inhibition concentration) was calculated by the probit method. The final concentration of DMSO was adjusted to be no more than 2% in consideration of the effect on PDE activity.

The test system of experiment [2] is PDE type I. Description: PDE Inhibiting Activity, type I. It is filed as biochemical, dog (canine aorta). The following applies: PDE type I from canine aorta, 1 μM substrate, pH 7.5; read-out: Inhibition Activity IC50, Type I. The protocol:
as §1, §2

Experiment [3] deals with pulmonary arterial pressure. Kind of experiment: Pulmonary Arterial Pressure Lowering Action in anesthetized dogs. It is filed as in vivo, adult mongrel dogs. The following applies: anesthetized dogs. The protocol: (§3) Adult mongrel dogs were anesthetized by intramuscular administration of 20 mg/kg of ketamine and intravenous administration of 20 mL/kg of physiological saline containing 5 mg/mL of α-chloralose; under artificial respiration, the aortic pressure was measured with a catheter inserted into the femoral artery and the pulmonary arterial pressure with a Swan-Ganz catheter inserted into the pulmonary artery. Anesthesia was maintained by intravenous administration of physiological saline containing 5 mg/mL of α-chloralose at a rate of 5 mL/kg per hour. Comparison was made between nitroglycerin, nifedipine and test compounds which were administered intravenously at doses of 0.01-1 mg/kg. Each test compound was dissolved in dimethylformamide (DMF) and sequentially diluted with polyethylene glycol 200 and water to give respective proportions of 20, 50 and 30% (v/v) and administrated by injection into the right femoral vein in a volume of 0.3 mL/kg. The results are shown in Table 2 below, in which maximal percent decreases in the pulmonary arterial pressure and aortic pressure are listed to show the effectiveness of each test compound in lowering the pulmonary arterial pressure and the systemic blood pressure, respectively.

Experiment [4] has as its system systemic blood pressure. Description: Systemic blood (aortic) pressure lowering in anesthetized dogs. It is filed as in vivo, adult mongrel dogs. As to the method: as §3
[5] abbreviates: Canis lupus familiaris, iv, 0.3 mg/kg intravenous, maximal percent decrease, read-out: Reduction in pulmonary arterial pressure.
Setting [6] is: Canis lupus familiaris, iv, 0.3 mg/kg intravenous, anesthetized dogs, maximal percent decrease, read-out: Reduction in systemic blood pressure.

Molecules are shown by their SMILES. Where only a bound is given, the exact number is not on record here.

The IC50 is the concentration needed to halve the response being measured. Consider `CC(C)(C)OC(=O)COc1cc2c(=O)c(Cc3cccnc3)cn3c4ccc(Br)cc4c(c1)c23` [Example 3, 10-bromo-2-t-butoxycarbonylmethyloxy-5-(3-pyridylmethyl)-4H-pyrido [3,2,1-jk]carbazole-4-one], for which the 50% inhibitory concentration (IC50) in experiment [1] and in experiment [2] was more than 30 µM throughout. The inhibition in vivo at 0.3 mg/kg in experiment [3] (setting [5]) is 19%; in experiment [4] (setting [6]), 12%.
Consider `Cc1cn2c3ccc(Br)cc3c3cc(OCC(=O)OC(C)(C)C)cc(c1=O)c32` [Example 50, 10-bromo-2-t-butoxycarbonylmethyloxy-5-methyl-4H-pyrido [3,2,1-jk]carbazole-4-one], for which the IC50 in experiment [1] and in experiment [2] was more than 30 µM throughout. For the same molecule, the inhibition in vivo at 0.3 mg/kg in experiment [3] (setting [5]) came out at 33%; in experiment [4] (setting [6]), 13%.
In the case of `CC(C)(C)OC(=O)COc1cc2c(=O)ccn3c4ccc(Br)cc4c(c1)c23` [Example 60, 10-bromo-2-t-butoxycarbonylmethyloxy-4H-pyrido [3,2,1-jk]carbazole-4-one], the values for the half-maximal inhibitory concentration (IC50) in experiment [1] and in experiment [2] were 15 µM and more than 30 µM, respectively. The inhibition in vivo at 0.3 mg/kg is 20% in experiment [3] (setting [5]) and 8% in experiment [4] (setting [6]).
`O=c1c(Cc2cccnc2)cn2c3cc(Br)ccc3c3cc(O)cc1c32` [Example 102, 9-bromo-2-hydroxy-5-(3-pyridylmethyl)-4H-pyrido [3,2,1-jk]carbazole-4-one]: the IC50 in experiment [1] was 9.3 µM; in experiment [2], more than 30 µM. The figures for the inhibition in vivo at 0.3 mg/kg in experiment [3] (setting [5]) and in experiment [4] (setting [6]) were 24% and 19%, respectively.
For the molecule `O=c1c(Cc2cccnc2)cn2c3cc(Br)ccc3c3cc(OCc4cccnc4)cc1c32` [Example 105, 9-bromo-5-(3-pyridylmethyl)-2-(3-pyridylmethyloxy)-4H-pyrido [3,2,1-jk]carbazole-4-one], the half-maximal inhibitory concentration (IC50) was 2.4 µM in experiment [1] and more than 30 µM in experiment [2]. The inhibition in vivo at 0.1 mg/kg in experiment [3] (Canis lupus familiaris, iv, 0.1 mg/kg intravenous, maximal percent decrease, read-out: Reduction in pulmonary arterial pressure) was found to be 16%; in experiment [4] (Canis lupus familiaris, iv, 0.1 mg/kg intravenous, anesthetized dogs, maximal percent decrease, read-out: Reduction in systemic blood pressure) it was 12%.
Consider `COc1cc2c(=O)c(Cc3ccccc3)cn3c4cc(Br)ccc4c(c1)c23` [Example 121, 5-benzyl-9-bromo-2-methoxy-4H-pyrido [3,2,1-jk]carbazole-4-one], for which the IC50 in experiment [1] and in experiment [2] was more than 30 µM throughout.
With `O=c1c(Cc2ccccc2)cn2c3cc(Br)ccc3c3cc(O)cc1c32` [Example 122, 5-benzyl-9-bromo-2-hydroxy-4H-pyrido [3,2,1-jk]carbazole-4-one], the values for the IC50 in experiment [1] and in experiment [2] were 13 µM and more than 30 µM, respectively.
Take `CC(=O)Oc1cc2c(=O)c(Cc3cccnc3)cn3c4ccccc4c(c1)c23` [Example 156]: the values for the IC50 in experiment [1] and in experiment [2] were 5.6 µM and more than 30 µM, respectively.
In the case of `CC(=O)Oc1ccc2c3cccc4c(=O)c(Cc5cccnc5)cn(c2c1)c43` [Example 226], the figures for the IC50 in experiment [1] and in experiment [2] were 12 µM and more than 30 µM, respectively.
On the same counts, the results for `CCOC(=O)COc1cc2c(=O)c(Cc3cccnc3)cn3c4ccc(Cl)cc4c(c1)c23` [Example 245] are 3.9 µM and more than 30 µM.
In the case of `Cc1cc2c(=O)ccn3c4ccc(Br)cc4c(c1)c23` [Example 277], the IC50 in experiment [1] and in experiment [2] was more than 30 µM each time.
`CS(=O)(=O)O.O=c1c(Cc2cccnc2)cn2c3cc(Br)ccc3c3cc(OCCCO)cc1c32` [Example 279, 9-bromo-2-(3-hydroxypropyloxy)-5-(3-pyridylmethyl)-4H-pyrido[3,2,1-jk]carbazole-4-one methanesulfonate]: the “Reduction in pulmonary arterial pressure” value in experiment [3] (0.3 mg/kg intravenous, maximal percent decrease) came out at 17%. Further, the “Reduction in systemic blood pressure” value in experiment [4] (0.3 mg/kg intravenous, anesthetized dogs, maximal percent decrease) is given as 4%.
On to `O=c1c(Cc2cccnc2)cn2c3cc(Cl)ccc3c3cc(OCCCO)cc1c32` [Example 283, 9-chloro-2-(3-hydroxypropyloxy)-5-(3-pyridylmethyl)-4H-pyrido[3,2,1-jk]carbazole-4-one], for which the results for the IC50 in experiment [1] and in experiment [2] were 3.6 µM and more than 30 µM, respectively.
Consider `O=c1c(Cc2cccnc2)cn2c3cc(Cl)ccc3c3cc(OCCCO)cc1c32` [Example 285, 9-chloro-2-(3-hydroxypropyloxy)-5-(3-pyridylmethyl)-4H-pyrido[3,2,1-jk]carbazole-4-one methanesulfonate], for which the inhibition in vivo at 0.3 mg/kg in experiment [3] (setting [5]) turned out to be 16%; in experiment [4] (setting [6]), 2%.
As to `O=c1c(Cc2cccnc2)cn2c3cc(C(F)(F)F)ccc3c3cc(OCCCO)cc1c32` [Example 289, 2-(3-hydroxypropyloxy)-5-(3-pyridylmethyl)-9-trifluoromethyl-4H-pyrido[3,2,1-jk]carbazole-4-one], the results for the IC50 in experiment [1] and in experiment [2] were 2.5 µM and more than 30 µM, respectively.
With `O=c1c(Cc2cccnc2)cn2c3cc(C(F)(F)F)ccc3c3cc(OCCCO)cc1c32` [Example 291, 2-(3-hydroxypropyloxy)-5-(3-pyridylmethyl)-9-trifluoromethyl-4H-pyrido[3,2,1-jk]carbazole-4-one methanesulfonate], the values for the inhibition in vivo at 0.3 mg/kg in experiment [3] (setting [5]) and in experiment [4] (setting [6]) were 13% and 4%, respectively.
For the molecule `COC(=O)C1=C(C)NC(C)=C(C(=O)OC)C1c1ccccc1[N+](=O)[O-]` [Nifedipine, nifedipine, reference compound], the inhibition in vivo at 0.01 mg/kg is 3% in experiment [3] (Canis lupus familiaris, iv, 0.01 mg/kg intravenous, maximal percent decrease, read-out: Reduction in pulmonary arterial pressure) and 18% in experiment [4] (Canis lupus familiaris, iv, read-out: Reduction in systemic blood pressure). Further, the “pulmonary arterial versus systemic blood pressure lowering (in words)” value in experiment [3] (intravenous) is recorded as “lowered the systemic blood pressure by greater degrees than the pulmonary arterial pressure”.

These data come from patent publication US6197768A, “Pyridocarbazole derivatives having cgmp-pde inhibitory activity” (Mochida Pharmaceutical Co., Ltd., priority 1996, dated 2001).
